Data published in paper PMC4072508, “Genome-Wide Prediction and Validation of Peptides That Bind Human Prosurvival Bcl-2 Proteins” (PLoS Computational Biology, 2014).
Values joined by “and” are separate entries in the source; they are usually repeats but may differ in a detail not shown here. Identical values can stand only once. Like-named read-outs stand apart in the source and are kept apart here. Residues, ends and D or L forms follow the SMILES beside them. No end group written: not given here.

Legend:
Test in all cases: Fluorescence polarization direct binding
Mcl-1 = target: T1, Mcl-1 (Homo sapiens, UniProt Q07820)
T1 construct: myc-Mcl-1 SPOT array & FP; made in house
T1 sequence (Q07820 with tags, fused parts or gaps): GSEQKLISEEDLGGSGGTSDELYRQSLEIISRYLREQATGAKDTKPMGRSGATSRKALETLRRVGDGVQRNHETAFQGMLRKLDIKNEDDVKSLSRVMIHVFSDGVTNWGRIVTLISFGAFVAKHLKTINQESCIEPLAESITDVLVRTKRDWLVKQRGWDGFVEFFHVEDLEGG
Method: (§1) Peptides were purified by reverse-phase HPLC using a C18 column and a linear water/acetonitrile gradient. We re-analyzed the purified peptide by mass spectrometry if there was not a single well-defined peak in HPLC chromatogram.
(§2) Fluorescence polarization (FP) assays were done at 25°C in assay buffer (20 mM NaPO4, 50 mM NaCl, 1 mM EDTA, 0.001% Triton X (v/v), pH 7.8). […] For all FP experiments, the total well volume was 120 µl. […] Anisotropy was measured using a Spectramax M5 plate reader from Molecular Devices.
(§3) Direct binding curves were fit using Pylab/Scipy/Optimize to a single-site binding model utilized previously.
(§4) ^1Best-fit KD values determined by combining all replicate titration curves and fitting to a direct binding model (see Methods). […] Values with an X followed by a number indicate the highest concentration (the number, in nM) for which signal was measured yet no binding was detected.

Bcl-2 = target: T2, Bcl-2 (Homo sapiens, UniProt P10415, DEL53-91)
T2 construct: myc- Bcl-2 FP; made in house
T2 sequence (P10415 with tags, fused parts or gaps DEL53-91): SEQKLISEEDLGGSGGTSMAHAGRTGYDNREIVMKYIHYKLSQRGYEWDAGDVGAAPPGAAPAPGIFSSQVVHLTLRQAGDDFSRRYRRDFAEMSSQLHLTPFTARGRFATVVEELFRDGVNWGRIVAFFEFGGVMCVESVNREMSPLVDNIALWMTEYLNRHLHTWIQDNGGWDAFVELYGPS
Method: as §1, §2, §3, §4

Bcl-xL = target: T3, Bcl-xL (Homo sapiens, UniProt Q07817)
T3 construct: myc-Bcl-xL SPOT array & FP; made in house
T3 sequence (Q07817 with tags, fused parts or gaps): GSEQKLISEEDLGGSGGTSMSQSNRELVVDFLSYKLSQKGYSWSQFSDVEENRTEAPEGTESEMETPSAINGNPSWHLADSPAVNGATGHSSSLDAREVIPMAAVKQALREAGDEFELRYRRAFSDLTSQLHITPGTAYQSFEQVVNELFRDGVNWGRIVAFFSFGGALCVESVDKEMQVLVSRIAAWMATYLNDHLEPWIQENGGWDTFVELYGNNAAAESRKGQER
Method: as §1, §2, §3, §4

Bfl-1 = target: T4, Bfl-1 (Homo sapiens, UniProt Q16548)
T4 construct: myc- Bfl-1 SPOT array & FP; made in house
T4 sequence (Q16548 with tags, fused parts or gaps): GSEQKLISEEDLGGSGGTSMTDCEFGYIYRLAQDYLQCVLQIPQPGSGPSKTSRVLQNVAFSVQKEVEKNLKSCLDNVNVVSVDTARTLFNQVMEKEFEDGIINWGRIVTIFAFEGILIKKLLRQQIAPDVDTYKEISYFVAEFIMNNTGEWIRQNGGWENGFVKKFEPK
Method: as §1, §2, §3, §4

Bcl-w = target: T5, Bcl-w (Homo sapiens, UniProt Q92843, Q133R)
T5 construct: myc-Bcl-w SPOT array & FP; made in house
T5 sequence (Q92843 with tags, fused parts or gaps Q133R): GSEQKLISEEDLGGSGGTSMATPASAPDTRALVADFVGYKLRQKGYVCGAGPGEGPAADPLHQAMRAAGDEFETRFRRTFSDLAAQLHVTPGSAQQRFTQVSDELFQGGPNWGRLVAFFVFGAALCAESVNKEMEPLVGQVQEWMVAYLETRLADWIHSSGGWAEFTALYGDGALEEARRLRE
Method: as §1, §2, §3, §4

[1] = Binder class, Mcl-1, benchmark classification of peptides newly characterized in this study
[2] = FP direct binding, 10 nM FAM-labeled peptide, receptor titrated, 25°C, pH 7.8, fit of all replicate titrations, X+number in a cell = highest concentration (nM) measured with no binding detected, given here as >, SPNS1 fit to raw fluorescence
[3] = FP direct binding, 10 nM FAM-labeled peptide, receptor titrated, 25°C, pH 7.8, fit of all replicate titrations, X+number in a cell = highest concentration (nM) measured with no binding detected, given here as >, SPNS1 fit to raw fluorescence, read-out: Best-fit KD, Bcl-2
[4] = benchmark classification of peptides newly characterized in this study, read-out: Binder class, Bcl-2
[5] = FP direct binding, 10 nM FAM-labeled peptide, receptor titrated, 25°C, pH 7.8, fit of all replicate titrations, X+number in a cell = highest concentration (nM) measured with no binding detected, given here as >, SPNS1 fit to raw fluorescence, read-out: Best-fit KD, Bcl-xL
[6] = benchmark classification of peptides newly characterized in this study, read-out: Binder class, Bcl-xL
[7] = FP direct binding, 10 nM FAM-labeled peptide, receptor titrated, 25°C, pH 7.8, fit of all replicate titrations, X+number in a cell = highest concentration (nM) measured with no binding detected, given here as >, SPNS1 fit to raw fluorescence, read-out: Best-fit KD, Bfl-1
[8] = benchmark classification of peptides newly characterized in this study, read-out: Binder class, Bfl-1
[9] = FP direct binding, 10 nM FAM-labeled peptide, receptor titrated, 25°C, pH 7.8, fit of all replicate titrations, X+number in a cell = highest concentration (nM) measured with no binding detected, given here as >, SPNS1 fit to raw fluorescence, read-out: Best-fit KD, Bcl-w
[10] = benchmark classification of peptides newly characterized in this study, read-out: Binder class, Bcl-w

Compound	Kd (Mcl-1; [1]) [nM]	Best-fit KD, Mcl-1 (Mcl-1; [2])	Kd (Mcl-1; [2])	Kd (Bcl-2; [3])	Kd (Bcl-2; [4]) [nM]	Kd (Bcl-xL; [5])	Kd (Bcl-xL; [6]) [nM]	Kd (Bfl-1; [7])	Kd (Bfl-1; [8]) [nM]	Kd (Bcl-w; [9])	Kd (Bcl-w; [10]) [nM]	Best-fit KD, Bcl-2 (Bcl-2; [2])	Best-fit KD, Bcl-xL (Bcl-xL; [2])	Best-fit KD, Bcl-w (Bcl-w; [2])
QRKHEGFERDLAALGDKVNSLGETAE-NH2 [SPTAN1]	> 10000	–	3850 nM	> 3050 nM	1000 to 10000	> 7000 nM	> 10000	> 3370 nM	> 10000	> 4350 nM	> 10000	–	–	–
CC[C@H](C)[C@H](N)C(=O)N[C@H](C(=O)N[C@@H](CCC(N)=O)C(=O)N[C@@H](CCSC)C(=O)N[C@H](C(=O)N[C@H](C(=O)N[C@@H](CCC(=O)O)C(=O)N[C@@H](CC(C)C)C(=O)N[C@@H](CC(C)C)C(=O)N[C@@H](CCCCN)C(=O)N[C@@H](CCCNC(=N)N)C(=O)N[C@H](C(=O)NCC(=O)N[C@@H](CC(=O)O)C(=O)N[C@@H](CCC(N)=O)C(=O)N[C@@H](Cc1c[nH]c2ccccc12)C(=O)N[C@@H](CCC(=O)O)C(=O)N[C@@H](CCC(=O)O)C(=O)N[C@@H](CCC(=O)O)C(=O)N[C@@H](CCC(N)=O)C(=O)N[C@@H](CO)C(=O)N[C@@H](CC(C)C)C(=O)N[C@@H](C)C(N)=O)C(C)C)C(C)C)[C@@H](C)CC)[C@@H](C)CC [C6orf222]	< 1000	–	< 30 nM and 23 nM	< 30 nM and 0.3 nM	< 1000	–	–	< 30 nM and 1 nM	< 1000	< 30 nM and 13 nM	< 1000	–	–	–
THEEVVHLLRNAGDEVTITVEYL-NH2 [SNTG2]	< 1000	bound tightly	22 nM	> 3050 nM	> 10000	> 4000 nM	> 10000	> 4070 nM	> 10000	> 6560 nM	> 10000	–	–	–
CC[C@H](C)[C@H](NC(=O)[C@H](CCC(N)=O)NC(=O)[C@H](C)NC(=O)[C@H](CC(C)C)NC(=O)[C@H](Cc1ccc(O)cc1)NC(=O)[C@H](CCCNC(=N)N)NC(=O)[C@H](CO)NC(=O)[C@H](CCC(=O)O)NC(=O)[C@@H]1CCCN1C(=O)[C@@H](NC(=O)[C@@H](NC(=O)[C@H](CCC(=O)O)NC(=O)[C@@H](NC(=O)[C@@H](N)CCCCN)[C@@H](C)CC)[C@@H](C)O)[C@@H](C)O)C(=O)NCC(=O)N[C@@H](CC(=O)O)C(=O)N[C@@H](CO)C(=O)N[C@H](C(=O)N[C@@H](CO)C(=O)N[C@@H](CC(C)C)C(=O)N[C@H](C(=O)N[C@@H](CS)C(=O)N[C@@H](CO)C(=O)N[C@H](C(=O)N[C@H](C(=O)NCC(N)=O)[C@@H](C)O)[C@@H](C)O)[C@@H](C)O)C(C)C [VCAM1]	–	–	–	> 3050 nM	–	–	–	> 3370 nM	–	> 4350 nM	–	–	–	–
DARDYAVVLRKYADKIYSISMKH-NH2 [FOLH1]	–	–	–	70 nM	> 10000	–	< 1000	1600 nM	1000 to 10000	907 nM	> 10000	–	–	–

The next lines start with the values.

Kd (Mcl-1; [1]) [nM]	Best-fit KD, Mcl-1 (Mcl-1; [2])	Kd (Mcl-1; [2])	Kd (Bcl-2; [3])	Kd (Bcl-2; [4]) [nM]	Kd (Bcl-xL; [5])	Kd (Bcl-xL; [6]) [nM]	Kd (Bfl-1; [7])	Kd (Bfl-1; [8]) [nM]	Kd (Bcl-w; [9])	Kd (Bcl-w; [10]) [nM]	Best-fit KD, Bcl-2 (Bcl-2; [2])	Best-fit KD, Bcl-xL (Bcl-xL; [2])	Best-fit KD, Bcl-w (Bcl-w; [2])	Compound
< 1000	bound tightly	142 nM	> 3050 nM	< 1000	> 4000 nM	> 10000	> 3370 nM	> 10000	> 4350 nM	1000 to 10000	–	–	–	KREKLVEILRNIGDERTMVFVET-NH2 [DDX4]
1000 to 10000	–	> 10000 nM	2560 nM	–	> 10000 nM	–	> 10000 nM	–	3280 nM	–	–	–	–	CC[C@H](C)[C@H](NC(=O)[C@@H](NC(=O)[C@H](CCSC)NC(=O)CNC(=O)[C@H](CCCNC(=N)N)NC(=O)[C@H](CO)NC(=O)[C@H](CCC(N)=O)NC(=O)[C@H](CC(C)C)NC(=O)[C@H](CC(C)C)NC(=O)[C@H](CO)NC(=O)CNC(=O)[C@H](CS)NC(=O)[C@@H](NC(=O)[C@H](CC(=O)O)NC(=O)[C@H](CCCNC(=N)N)NC(=O)[C@H](CCSC)NC(=O)[C@H](CC(C)C)NC(=O)[C@H](CCCCN)NC(=O)[C@H](CO)NC(=O)[C@@H](NC(=O)[C@H](CS)NC(=O)[C@H](CO)NC(=O)[C@H](CC(C)C)NC(=O)[C@H](CCC(N)=O)NC(=O)[C@H](CS)NC(=O)[C@@H](N)CC(C)C)C(C)C)C(C)C)C(C)C)C(N)=O [FBXO30] (H-LCQLSCVSKLMRDVCGSLLQSRGMVI-NH2)
< 1000	–	< 30 nM and 0.9 nM	< 30 nM and 14 nM	< 1000	< 30 nM and 8 nM	< 1000	< 30 nM and 1 nM	< 1000	< 30 nM and 5 nM	< 1000	–	–	–	IIHKLAMQLRHIGDNIDHRMVRE-NH2 [PXT1]
> 10000	–	977 nM	1500 nM	< 1000	650 nM	< 1000	> 5680 nM	> 10000	1400 nM	> 10000	–	–	–	RYRHGAPAEQLRHLADMLTTKWATLQ-NH2 [PLEKHH1]
< 1000	–	> 2430 nM	6090 nM	1000 to 10000	3060 nM	1000 to 10000	> 5590 nM	> 10000	749 nM	1000 to 10000	–	–	–	EVLAGPLAQRLSHIAEDVGRLVKKSR-NH2 [ARHGAP4]
> 10000	–	> 5030 nM	> 100000 nM	1000 to 10000	> 4000 nM	> 10000	> 4670 nM	> 10000	5870 nM	1000 to 10000	–	–	–	LSDGLPVHLANIADELTQKKKMF-NH2 [AGBL2]
> 10000	–	> 10000 nM	98 nM	< 1000	39 nM	< 1000	> 2280 nM	> 10000	98 nM	< 1000	bound tightly	bound tightly	bound tightly	RSMVFARHLREVGDEFRSRHLNS-NH2 [POFUT2]
